Experimental data taken from EP0185961A2, “1-Phenyl-imidazole-5-carboxylic acid derivatives, process for their preparation and their use as growth regulators” (HOECHST AKTIENGESELLSCHAFT, priority 1984, dated 1986).

How the values were obtained:
[1] = tested on: Reispflanzen; experiment: Growth inhibition in paddy rice, small plots; conditions: Oryza sativa, 504 h, read-out: Wuchsshemmung (%)
From the text: (§4) Reispflanzen werden in Kleinparzellen (2 m x 2 m) angezogen und im Stadium der maximalen Bestockung mit erfindungsgemäßen Verbindungen behandelt. Die Substanzen werden sowohl durch Spritzung appliziert als auch in das Wasser gegeben.
(§5) 3 Wochen nach der Behandlung wird bei allen Pflanzen der Zuwachs gemessen und die Wuchshemmung in % des Zuwachses der Kontrollpflanzen berechnet. Es wird außerdem auf eine mögliche phytotoxische Wirkung der Verbindungen geachtet.
(§6) Die Wuchshemmung wird als prozentualer Wert ermittelt, wobei 100% den Stillstand des Wachstums und 0% ein Wachstum entsprechend dem der unbehandelten Kontrollpflanzen bedeuten.

[2] = tested on: Weizen; experiment: Growth inhibition in cereals, greenhouse tray test, sprayed at 3-leaf stage; format: in vivo; conditions: % of growth increment of untreated controls (100% = growth standstill), read-out: Wuchsshemmung in % bei Weizen; for pest or weed control at 1250 g/ha: 1,25 kg/ha; for pest or weed control at 2500 g/ha: 2,5 kg/ha
From the text: (§1) In Schalenversuchen im Gewächshaus werden junge Getreidepflanzen (Weizen, Gerste, Roggen) im 3-Blattstadium mit erfindungsgemäßen Verbindungen in verschiedenen Wirkstoffkonzentrationen (kg/ha) tropfnaß gespritzt. […]

[3] = tested on: Roggen; experiment: as above; format: in vivo; conditions: % of growth increment of untreated controls, read-out: Wuchsshemmung in % bei Roggen; for pest or weed control at 1250 g/ha: 1,25 kg/ha; for pest or weed control at 2500 g/ha: 2,5 kg/ha
From the text: as §1

[4] = tested on: Getreidepflanzen (Weizen, Gerste, Roggen); experiment: Phytotoxic effect observed in the cereal growth inhibition test; format: in vivo; conditions: cereals; one cell for 2,5 and 1,25 kg/ha
From the text: (§2) In Schalenversuchen im Gewächshaus werden junge Getreidepflanzen (Weizen, Gerste, Roggen) im 3-Blattstadium mit erfindungsgemäßen Verbindungen in verschiedenen Wirkstoffkonzentrationen (kg/ha) tropfnaß gespritzt.
(§3) Es wird außerdem die phytotoxische Wirkung der Verbindung beobachtet.

[5] = tested on: Sojabohnen; experiment: Growth inhibition in soybeans; conditions: Glycine max, 504 h, read-out: Wuchsshemmung (%)
From the text: (§7) Etwa 10 cm große Sojabohnen werden mit den Wirkstoffzubereitungen tropfnaß bespritzt. Nach 3 Wochen wird bonitiert.
as §6

[6] = tested on: Gerste; experiment: Growth inhibition in cereals, greenhouse tray test, sprayed at 3-leaf stage; format: in vivo; conditions: % of growth increment of untreated controls, read-out: Wuchsshemmung in % bei Gerste; for pest or weed control at 1250 g/ha: 1,25 kg/ha; for pest or weed control at 2500 g/ha: 2,5 kg/ha
From the text: as §2, §3

[7] = tested on: Reispflanzen; conditions: in vivo
From the text: as §4, §5, §6

[8] = tested on: Sojabohnen; conditions: in vivo
From the text: as §7, §6

Row | Structure (SMILES) | pest or weed control at 620 g/ha [1] [%] | pest or weed control at 1250 g/ha [1] [%] | pest or weed control at 1250 g/ha [2] [%] | pest or weed control at 2500 g/ha [2] [%] | pest or weed control at 1250 g/ha [3] [%] | pest or weed control at 2500 g/ha [3] [%] | Phytotox. Wirkung [4] | pest or weed control at 2500 g/ha [5] [%] | pest or weed control at 1250 g/ha [6] [%] | pest or weed control at 2500 g/ha [6] [%] | Phytotox. Wirkung [7] | Phytotox. Wirkung [8]
1 | CCc1cccc(CC)c1-n1cncc1C(=O)ON=C(C)C1CC1 [Beispiel 45] | 13 | 19 | 11 | 19 | 15 | 22 | keine Schäden | 18 | 15 | 32 | keine Schäden | keine Schäden
2 | CCc1cccc(CC)c1-n1cncc1C(=O)ON=C1CCCCC1 [Beispiel 51] | 19 | 26 | 16 | 25 | 20 | 27 | keine Schäden | 24 | 18 | 37 | keine Schäden | keine Schäden
3 | CCOC(=O)CSC(=O)c1cncn1-c1c(CC)cccc1CC [Beispiel 54] | 14 | 21 | 13 | 22 | 18 | 24 | keine Schäden | 19 | 19 | 33 | keine Schäden | keine Schäden
4 | CCc1cccc(CC)c1-n1cncc1C(=O)NCC#N [Beispiel 57] | 13 | 20 | 12 | 23 | 17 | 23 | keine Schäden | 18 | 18 | 31 | keine Schäden | keine Schäden
5 | CCc1cccc(CC)c1-n1cncc1C(=O)NCC(=O)O [Beispiel 60] | 13 | 21 | 13 | 23 | 17 | 24 | keine Schäden | 21 | 19 | 32 | keine Schäden | keine Schäden
6 | CCc1cccc(CC)c1-n1cncc1C(=O)NCC(=O)OC [Beispiel 61] | 13 | 20 | 13 | 23 | 18 | 25 | keine Schäden | 17 | 19 | 31 | keine Schäden | keine Schäden
7 | CCc1cccc(CC)c1-n1cncc1C(=O)NN [Beispiel 65] | 14 | 21 | 14 | 21 | 18 | 24 | keine Schäden | 17 | 19 | 29 | keine Schäden | keine Schäden
8 | CCc1cccc(CC)c1-n1cncc1C(=O)NN(C)C [Beispiel 66] | 12 | 21 | 14 | 22 | 18 | 25 | keine Schäden | 18 | 19 | 31 | keine Schäden | keine Schäden
